The target of one data set is T1, hKv1.5 (Homo sapiens, UniProt P22460).
T1 construct: expressed in transfected cells; host or cells: CHO
Kind of data set: Kv1.5 electrophysiology, whole cell patch clamp. The data set is classed as cell-based. The following applies: CHO stably transfected with hKv1.5, whole cell patch clamp, room temperature. The method, then: The ability of the compounds of the invention to inhibit the Kv1.5 potassium channel was measured in an electrophysiology experiment, using recombinant cells expressing the channel of interest in a whole cell patch clamp experiment.
The external bathing solution contained (in mM): 150 NaCl, 10 KCl, 3 MgCl2, 1 CaCl2, HEPES, pH 7.4. Patch pipettes were filled with an electrode solution of composition (in mM): 160 KCl, 0.5 MgCl2, 10 HEPES, 1 EGTA, pH 7.2 with KOH.
Compounds were dissolved in DMSO (100%) and freshly made up in the external bather at the desired concentration (final DMSO concentration=0.1%). All experiments were conducted at room temperature.
For whole-cell patch-clamp studies cells (CHO stably transfected with hKv1.5) were seeded onto glass coverslips before recordings were made. Cells were seeded in sterile 30 mm Petri dishes at a density to enable isolated cells to be selected for patch clamp experiments. The dishes were stored in a humidified, gassed (5% CO2) incubator at 37° C. until use.
Whole-cell patch-clamp recordings of membrane currents were made following gigaohm seal formation between the patch electrode and the cell using HEKA EPC-9/10 amplifiers controlled by Pulse Software (Ver8.5x/8.6x, HEKA, Germany). Coverslips seeded with cells were placed in a recording chamber mounted on the stage of an inverted microscope. During the experiment the cell of interest was continuously superfused with bather solution delivered via a cannula placed in close proximity to the cell to enable control of the extracellular solution environment. Only those cells with a current>500 pA were used for experiments. […]
Electrophysiology voltage-step protocols and analysis of data was performed as follows. […] Mean currents during 75-95% of the depolarising step to 0 mV were analysed using Pulsefit software (v8.x, HEKA, Germany). […] The test substance was allowed to equilibrate during which time voltage protocol was repeatedly applied and recorded. Percentage inhibition of the current in the presence of test substance was calculated relative to the control pre-drug value.

The structures appear in SMILES notation.

T1 sequence (P22460 whole entry): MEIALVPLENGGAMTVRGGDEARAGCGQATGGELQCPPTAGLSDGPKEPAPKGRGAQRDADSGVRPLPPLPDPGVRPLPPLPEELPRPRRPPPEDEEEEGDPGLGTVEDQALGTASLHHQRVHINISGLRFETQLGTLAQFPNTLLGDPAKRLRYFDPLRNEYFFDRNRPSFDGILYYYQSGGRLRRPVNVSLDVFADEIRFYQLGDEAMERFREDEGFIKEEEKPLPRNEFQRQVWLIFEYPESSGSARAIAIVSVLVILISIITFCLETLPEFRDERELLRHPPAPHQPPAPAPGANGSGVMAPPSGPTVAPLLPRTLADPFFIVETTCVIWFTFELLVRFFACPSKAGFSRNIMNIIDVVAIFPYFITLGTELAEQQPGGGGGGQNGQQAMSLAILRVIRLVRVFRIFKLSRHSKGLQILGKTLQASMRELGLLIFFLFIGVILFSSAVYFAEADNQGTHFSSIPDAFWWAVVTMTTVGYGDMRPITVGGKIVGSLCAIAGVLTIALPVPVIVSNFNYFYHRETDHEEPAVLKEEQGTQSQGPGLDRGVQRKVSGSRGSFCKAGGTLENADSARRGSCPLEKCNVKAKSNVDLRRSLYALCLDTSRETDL

Compound `O=C(NCCO)C1CCCN(c2nc(NCc3ccccn3)c3c(-c4ccccc4)csc3n2)C1` (racemic) [Racemate, 1-{5-Phenyl-4-[(pyridin-2-ylmethyl)-amino]-thieno[2,3-d]pyrimidin-2-yl}-piperidine-3carboxylic acid (2-hydroxy-ethyl)-amide] gave a melting point of 190 to 194 °C. In addition, the IC50 on hKv1.5 came out at 9 nM.

For `O=C(NCCO)[C@@H]1CCCN(c2nc(NCc3ccccn3)c3c(-c4ccccc4)csc3n2)C1` [(R) enantiomer (Ic), (R)-1-{5-Phenyl-4-[(pyridin-2-ylmethyl)-amino]-thieno[2,3-d]pyrimidin-2-yl}-piperidine-3-carboxylic acid (2-hydroxy-ethyl)-amide], the melting point is 71 to 76 °C. For the same compound, the IC50 against hKv1.5 is 5 nM.

`O=C(NCCO)[C@H]1CCCN(c2nc(NCc3ccccn3)c3c(-c4ccccc4)csc3n2)C1` [(S) enantiomer (Ib), (S)-1-{5-Phenyl-4-[(pyridin-2-ylmethyl)-amino]-thieno[2,3-d]pyrimidin-2-yl}-piperidine-3-carboxylic acid (2-hydroxy-ethyl)-amide] had a melting point of 61 to 65 °C. Besides, the half-inhibitory concentration (IC50) against hKv1.5 was 27 nM.

For the origin of these results see US9249155B2, “Thieno [2, 3-D] pyrimidine derivatives and their use to treat arrhythmia” (XENTION LIMITED, priority 2011, dated 2016).
